Experimental data published in patent publication US8242240B2, “Anti-inflammatory compounds and uses thereof” (Yale University, priority 2000, dated 2012).

Assays:
[1] = system: mice (PMA-induced ear edema); test: PMA-induced ear edema in mice; assay type: in vivo; conditions: topical 200 μg/ear
Experimental: The NBD peptide was tested for its ability to inhibit inflammatory responses in animals using two distinct models of acute inflammation. In the first model, ear edema was induced in mice using phorbol-12-myristate-13-acetate (PMA) and the effects of topical administration of the NBD peptides were measured. Ear edema using PMA was induced in replicate groups of age and sex matched mice as previously described (Chang et al., (1987) Eur. J. Pharmacol. 142, 197-205). Twenty μl of either NBD peptides (200 μg/ear), dexamethasone (40 μg/ear) or vehicle (DMSO:Ethanol; 25:75 v/v) was applied topically to the right ear of mice thirty minutes before and thirty minutes after the application of 20 μl of PMA (5 μg/ear) dissolved in ethanol. Ear swelling was measured six hours after PMA application using a microgauge and expressed as the mean difference in thickness between the treated (right) and untreated (left) ears. Statistical analysis of the data was performed using the students t-test. A value of p<0.05 was considered statistically significant.

endogenous IKK complex = biological target: T1, endogenous IKK complex (Homo sapiens, UniProt Q9Y6K9); test: Anti-NEMO immunoprecipitation of the IKK complex from peptide-treated HeLa cells; assay type: cell-based; conditions: peptide 200 μM, anti-NEMO IP, anti-IKKβ blot
T1 construct: wild-type but not mutant disrupted the formation of the endogenous IKK complex; endogenous in cells; host or cells: HeLa
T1 sequence (Q9Y6K9 whole entry, one chain of several): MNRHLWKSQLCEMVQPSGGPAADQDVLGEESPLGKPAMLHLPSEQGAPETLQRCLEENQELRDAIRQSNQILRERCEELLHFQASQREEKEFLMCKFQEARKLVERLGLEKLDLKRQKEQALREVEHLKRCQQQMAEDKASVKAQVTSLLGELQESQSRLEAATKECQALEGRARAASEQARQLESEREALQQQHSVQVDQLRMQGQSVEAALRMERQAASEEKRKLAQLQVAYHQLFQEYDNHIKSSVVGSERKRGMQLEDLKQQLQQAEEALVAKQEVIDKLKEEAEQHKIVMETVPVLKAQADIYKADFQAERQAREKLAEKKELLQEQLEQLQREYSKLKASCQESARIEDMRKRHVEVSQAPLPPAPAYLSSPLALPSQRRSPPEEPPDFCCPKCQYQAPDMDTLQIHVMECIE
Experimental: (A) Sequences of wild-type (SEQ ID NO:18) and mutant (SEQ ID NO:19 forms of IKKβ NBD peptide. (B) GST-pull-down analysis was performed using either GST-NEMO-in vitro translated IKKβ (upper panel) or GST-IKKβ-(644-756)-in vitro translated NEMO (lower panel). The assay was performed in the absence (no peptide) or presence of increasing concentrations ([…], 500 or 1000 μM) of either mutant (MUT) (SEQ ID NO:19) or wild-type (WT) NBD (SEQ ID NO:18). (C) HeLa cells were incubated with either peptide (200 μM) for the times indicated. Following lysis, the IKK complex was immunoprecipitated using anti-NEMO and the resulting immunoblot probed with anti-IKKβ. (D) Gel image showing anti-NEMO immunoprecipitation. (E) Gel image showing anti-FLAG immunoblot. (F) HeLa cells were incubated for three hours with increasing concentrations: 50, 100 or 200 μM) of each peptide followed by treatment for fifteen minutes with TNFα (10 ng/ml) as indicated (+). Following lysis, nuclear extracts were made and 10 μg of protein from each sample was used for EMSA using a specific [^32P]-labeled κB-site probe. (G) Gel image showing anti-Phospho-C-Jun immunoblot and anti-β-Actin immunoblot. […] Subsequently the cells were either treated with TNFα (10 ng/ml) as indicated (toe panel) or left untreated (bottom panel) for a further four hours after which NF-κB activation was measured by luciferase assay. […]

NF-κB = test: pBIIX-luciferase NF-κB reporter assay in HeLa cells; assay type: cell-based, human; conditions: for TNFα-induced NF-κB activation (luciferase reporter): peptide 100 and 200 μM 2 h, TNFα 10 ng/ml 4 h; for basal NF-κB activity (luciferase reporter): no TNFα
Experimental: (§1) (A) Sequences of wild-type (SEQ ID NO:18) and mutant (SEQ ID NO:19 forms of IKKβ NBD peptide. (B) GST-pull-down analysis was performed using either GST-NEMO-in vitro translated IKKβ (upper panel) or GST-IKKβ-(644-756)-in vitro translated NEMO (lower panel). The assay was performed in the absence (no peptide) or presence of increasing concentrations ([…], 500 or 1000 μM) of either mutant (MUT) (SEQ ID NO:19) or wild-type (WT) NBD (SEQ ID NO:18). (C) HeLa cells were incubated with either peptide (200 μM) for the times indicated. Following lysis, the IKK complex was immunoprecipitated using anti-NEMO and the resulting immunoblot probed with anti-IKKβ. (D) Gel image showing anti-NEMO immunoprecipitation. (E) Gel image showing anti-FLAG immunoblot. (F) HeLa cells were incubated for three hours with increasing concentrations: 50, 100 or 200 μM) of each peptide followed by treatment for fifteen minutes with TNFα (10 ng/ml) as indicated (+). Following lysis, nuclear extracts were made and 10 μg of protein from each sample was used for EMSA using a specific [^32P]-labeled κB-site probe. (G) Gel image showing anti-Phospho-C-Jun immunoblot and anti-β-Actin immunoblot. (H) HeLa cells were transfected for forty-eight hours with pBIIX-luciferase then incubated for two hours in the absence (control) or presence of mutant or wild-type NBD peptide (100 and 200 μM of each). Subsequently the cells were either treated with TNFα (10 ng/ml) as indicated (toe panel) or left untreated (bottom panel) for a further four hours after which NF-κB activation was measured by luciferase assay.
For transfection studies, HeLa and COS cells were seeded into either twenty-four well (1×10^5 cells/well) or six well (5×10^5 cells/well) plates and grown for twenty-four hours before transfection of DNA with FUGENE6(Roche) according to the manufacturer's protocol. Cells in twenty-four well and six well trays received a total of 1 μg or 2 μg of DNA respectively. After forty-eight hours cells were lysed with TNT (200 mM NaCl, 20 mM Tris-pH 8.0, 1% Triton-100) and the lysate were used for either immunoprecipitation or luciferase assay (Primage Luciferase Assay System).
The effects of the NBD peptides on signal-induced activation of NF-κB were investigated next. Analysis using electrophoretic mobility shift assay. […] Further, after transfecting HeLa cells with the pBIIX-luciferase reporter, cells were preincubated with wild-type or mutant peptides, treated with TNFα and NF-κB activation measured by the luciferase reporter assay. As shown in FIG. 5H (top panel), the wild-type NBD peptide inhibited TNFα-induced NF-κB activation whereas the mutant had no effect. […]

IKKβ-NEMO interaction = biological target: T2, IKKβ-NEMO interaction (Homo sapiens, UniProt Q9Y6K9); test: In vitro GST pull-down of IKKβ/NEMO in the presence of NBD peptides; assay type: binding; conditions: peptide 125, 500 or 1000 μM
T2 construct: bacterially expressed version of full length NEMO fused at its NH2-terminus to glutathione S-transferase; made in house; host or cells: bacteria (GST-NEMO); in vitro translation (IKKβ)
T2 sequence (Q9Y6K9 whole entry, the tested form may be a part): as the sequence (Q9Y6K9 whole entry, one chain of several) above
Experimental: as §1
The sequences of the two NBD peptides used in t its study were [[…]][…] (wild-type) (SEQ ID NO: 18) and [[…]][…] (mutant) (SEQ ID NO: 19; FIG. 5A). The antennapedia homeodomain sequence (Derossi et al., (1994) J. Biol. Chem. 269, 10444-10450; U.S. Pat. No. 5,888,762; U.S. Pat. No. 6,015,787; U.S. Pat. No. 6,080,724) is bracketed and the positions of the W to A mutations are underlined. Both peptides were dissolved in DMSO to a stock concentration of 20 mM. For all experiments DMSO alone controls were no different from no peptide controls.
The mutant was identical except that the tryptophan residues (W739 and W741) in the NBD were mutated to alanine. […] To test the ability of the NBD peptides to enter cells and inhibit the IKKβ-NEMO interaction, HeLa cells were incubated with the peptides for different time periods and immunoprecipitated the IKK complex using anti-NEMO. In agreement with the in vitro data (FIG. 5B), wild-type but not mutant disrupted the formation of the endogenous IKK complex (FIG. 5C).

Substance | effect on PMA-induced ear thickening ([1]; p=0.09) | disruption of the formation of the endogenous IKK complex (endogenous IKK complex) | TNFα-induced NF-κB activation (luciferase reporter) (NF-κB) | inhibition of in vitro pull-down of [35S]-labeled IKKβ by GST-NEMO (IKKβ-NEMO interaction) | inhibition of in vitro pull-down of [35S]-labeled NEMO by GST-IKKβ-(644-756) (IKKβ-NEMO interaction) | inhibition of PMA-induced ear thickening ([1]; 30 min before and after PMA 5 μg/ear, 6 h) [%] | basal NF-κB activity (luciferase reporter) (NF-κB; listed as cell-permeable NBD peptide) | basal NF-κB activity (luciferase reporter) (NF-κB; listed as wild-type peptide)
[DRQIKIWFQNRRMKWKK]TALDASALQTE (DRQIKIWFQNRRMKWKKTALDASALQTE; Description of Artificial Sequence: Synthetic Mutant NBD peptide) [identical to wild-type NBD peptide except W739 and W741 mutated to alanine, reference compound] | insignificant | not | no effect | not | not | – | – | –
[DRQIKIWFQNRRMKWKK]TALDWSWLQTE (DRQIKIWFQNRRMKWKKTALDWSWLQTE; Description of Unknown: Unknown wildtype NBD peptide) [wild-type NBD peptide] | – | disrupted | inhibited | dose-dependently inhibited | dose-dependently inhibited | 77±3 | modest increase | enhanced
